# In PubChem BioAssay (NCI):
#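 Test compounds were applied to cells in 96-well plates for 48 hours at 5 doses. At the TGI there is no net growth.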
# Tests used:
# Assay in all cases: NCI tumour cell line growth inhibition, 48 h
# [1] = test system: SW-620 colon
# [2] = test system: SK-MEL-2 melanoma
# [3] = test system: MOLT-4 leukemia
# [4] = test system: SK-OV-3 ovarian
# [5] = test system: K-562 leukemia
# [6] = test system: RPMI-8226 leukemia
# [7] = test system: SF-268 CNS
# [8] = test system: U251 CNS
# [9] = test system: HCC-2998 colon
# [10] = test system: MALME-3M melanoma
# [11] = test system: OVCAR-3 ovarian
# [12] = test system: NCI-H226 lung
# [13] = test system: NCI/ADR-RES ovarian
Structure (SMILES),TGI [1] [µM],TGI [2] [µM],TGI [3] [µM],TGI [4] [µM],TGI [5] [µM],TGI [6] [µM],TGI [7] [µM],TGI [8] [µM],TGI [9] [µM],TGI [10] [µM],TGI [11] [µM],TGI [12] [µM],TGI [13] [µM]
COc1cc(/C=C2\CCC(C)c3c2nc(N)c(C#N)c3-c2cc(OC)c(OC)c(OC)c2)cc(OC)c1OC (stereo unspecified),> 100,> 100,> 100,> 100,> 100,> 100,> 100,> 100,,,,,
COc1ccc2c(c1)CC1NC2Cc2ccccc21 (stereo unspecified),> 100,> 100,> 100,> 100,> 100,> 100,> 100,> 100,> 100,> 100,> 100,,
CSC1=N/C(=C\c2ccc(Cl)cc2)C(=O)N1CN1CCOCC1,> 100,> 100,> 100,> 100,> 100,> 100,> 100,> 100,,> 100,> 100,> 100,> 100
O=C(/C=C(\O)C(=O)O)/C=C(\O)c1ccccc1Cl,> 100,> 100,> 100,> 100,> 100,> 100,> 100,> 100,> 100,> 100,> 100,> 100,
CCCN(CCC)C(=S)N/N=C/c1cccc(C)n1,> 100,26.4,0.588,15.7,15,0.546,15.1,> 100,,14.9,,0.837,1.07
COc1ccccc1NC(=S)Nc1cccc(C)n1,> 100,> 100,> 100,> 100,> 100,> 100,> 100,> 100,,> 100,> 100,> 100,> 100
O=C1OC(c2ccccc2)(c2ccccc2)CC1CN1CCOCC1 (stereo unspecified),18,36.5,65.4,60.6,78.7,,84,49.7,31.4,26.6,28.9,,
c1ccc2c(NCCCCCCCCNc3cccc4ccccc34)cccc2c1,40,> 100,39.9,> 100,80.9,> 10,> 100,> 100,> 100,46.5,> 100,> 100,
OC1OC(c2ccc[nH]2)C(F)(F)C(F)(F)C1(F)F (stereo unspecified),> 100,> 100,> 100,> 100,,> 100,> 100,> 100,,> 100,> 100,> 100,> 100
CCCCC1(OC(=O)CCC(=O)O)CCC2(CCC(C)C(C/C=C(C)/C=C/C(O)C(C)/C=C/C(=O)O)O2)OC1CC/C(C)=C/C(=O)O (stereo unspecified),39.8,3.18,26.9,25.4,9.99,> 37.3,7.22,15.6,9.98,20.3,11.2,6.1,
CC1C(c2ccccc2)=CCON1c1ccccc1 (stereo unspecified),> 100,> 100,> 100,> 100,> 100,> 100,> 100,> 100,> 100,> 100,> 100,> 100,
Clc1ccc2c(Cl)ncnc2c1I,> 100,> 100,61.4,> 100,> 100,> 100,> 100,> 100,> 100,> 100,> 100,93.3,
Cc1ccc(-c2cnc(NC3OC(COC(=O)c4ccccc4)C(OC(=O)c4ccccc4)C(OC(=O)c4ccccc4)C3OC(=O)c3ccccc3)s2)cc1 (stereo unspecified),> 100,> 100,> 100,> 100,,> 100,> 100,> 100,,> 100,> 100,> 100,> 100
Cc1nc(Nc2ccccc2)sc1C(=O)NNC(N)=O,> 100,> 100,> 100,> 100,> 100,> 100,> 100,> 100,> 100,> 100,> 100,> 100,
BrC12C3C4C5C(C(C43)C13OCCO3)C52 (stereo unspecified),> 100,> 100,> 100,> 100,> 100,> 100,> 100,> 100,> 100,> 100,> 100,,
C#CCOC(=O)C(N)CS (stereo unspecified),> 100,> 100,> 100,> 100,> 100,> 100,> 100,> 100,,> 100,> 100,> 100,> 100
CC(C)C1=CC(=O)C(C)(C2=NC(C)(C)CO2)c2ccccc21 (stereo unspecified),> 100,> 100,> 100,> 100,> 100,> 100,> 100,> 100,,> 100,> 100,> 100,
Cc1cccc(NC(=O)CSc2nnc(Cc3ccccc3)o2)c1,> 100,> 100,> 100,> 100,> 100,,> 100,> 100,> 100,> 100,> 100,> 100,
CC[N+](CC)(CC)Cc1cn(S(=O)(=O)c2ccccc2)c2ccccc12,> 100,> 100,> 100,,> 100,> 100,> 100,> 100,> 100,> 100,> 100,> 100,
CCOC(=O)C(NC(=O)NCc1ccc(F)cc1)C(F)(F)F (stereo unspecified),> 100,> 100,,> 100,> 100,> 100,> 100,> 100,> 100,,,,> 100
Cn1c(=S)[nH]c2c(Cl)cc(Cl)cc2c1=O,> 100,> 100,> 100,> 100,,,> 100,> 100,> 100,,> 100,,> 100
Cc1c(C(=O)Nc2ccc(Cl)c(C(F)(F)F)c2)oc2cc(O)ccc2/c1=N\NC(N)=S,> 100,> 100,> 100,> 100,> 100,> 100,> 100,> 100,> 100,> 100,> 100,> 100,
COCC1OCCN1C (stereo unspecified),> 100,> 100,> 100,> 100,> 100,> 100,> 100,> 100,,> 100,> 100,> 100,> 100
C=C1[C@H](OCC(C)C)[C@@H](OCC(C)C)[C@@H](O)C(C)(C)/C=C/[C@H](C)C(=O)[C@@]2(O)C[C@H](C)[C@H](O)[C@@H]2[C@H]1OCC(C)C,> 7.5,> 7.5,> 7.5,> 7.5,> 7.5,,> 7.5,> 7.5,> 7.5,,> 7.5,,> 7.5
NC(=S)Nc1nnc(-c2ccc(-c3nnc(NC(N)=S)o3)cc2)o1,> 100,> 100,> 100,> 100,> 100,> 100,> 100,> 100,> 100,> 100,> 100,> 100,
Cc1nc2c(s/c(=N\N)n2-c2ccccc2)c(=O)[nH]1,> 100,> 100,> 100,> 100,> 100,> 100,> 100,> 100,> 100,> 100,> 100,> 100,
CC1=C(N(C)C)C(=O)c2nc3n(c2C1=O)CCC3OC(N)=O (stereo unspecified),33.6,29.8,> 100,29.5,49.8,> 100,34.6,49.9,34.7,23.3,30.6,33.7,
N=c1oc2cc(O)c(O)cc2cc1C(N)=O,> 100,> 100,> 100,> 100,> 100,> 100,> 100,> 100,> 100,> 100,> 100,> 100,
C1=Cc2nc1c(-c1ccccc1)c1ccc([n-]1)c(-c1ccccc1)c1nc(c(-c3ccccc3)c3ccc([n-]3)c2-c2ccccc2)C=C1.[Zn+2],> 100,> 100,> 100,> 100,> 100,> 100,> 100,> 100,> 100,> 100,> 100,> 100,
